Measurements taken from ChEMBL document CHEMBL2401690, “Discovery of RG7388, a potent and selective p53-MDM2 inhibitor in clinical development” (J Med Chem, 2013).
pIC50: −log10 of the molar value.

Key:
RKO = assay: cells; settings: Homo sapiens
Description: Cytotoxicity against human RKO cells expressing wild type p53 assessed as growth inhibition by MTT assay

MDA-MB-435 = assay: cells; settings: Homo sapiens
Description: Cytotoxicity against human MDA-MB-435 cells expressing p53 mutant assessed as growth inhibition by MTT assay

SW480 = assay: cells; settings: Homo sapiens
Description: Cytotoxicity against human SW480 cells expressing p53 mutant assessed as growth inhibition by MTT assay

HCT-116 = assay: cells; settings: Homo sapiens
Description: Cytotoxicity against human HCT116 cells expressing wild type p53 assessed as growth inhibition by MTT assay

SJSA-1 [1] = assay: cells; settings: Homo sapiens
Description: Cytotoxicity against human SJSA1 cells expressing wild type p53 assessed as growth inhibition by MTT assay

[2] = Total plasma clearance in C57 mouse at 5 mg/kg, iv; assay type: ADME, organism-based; set-up: dose 5 mg/kg, route intravenous
[3] = Cmax in C57 mouse at 50 mg/kg, po; assay type: ADME, organism-based; set-up: dose 50 mg/kg, route oral; settings: in vivo
[4] = Clearance in human liver microsomes at […] by LC-MS/MS analysis; assay type: ADME, Microsome
[5] = Oral bioavailability in C57 mouse at 50 mg/kg; assay type: ADME, organism-based; settings: in vivo
[6] = Apparent terminal half-life in C57 mouse at 5 mg/kg, iv; assay type: ADME, organism-based; set-up: dose 5 mg/kg, route intravenous; settings: in vivo, read-out: betat1/2(app) (converted)
SJSA-1 [7] = assay: Antitumor activity against human SJSA1 cells xenografted in nude mouse assessed as tumor growth inhibition at 100 mg/kg, po after 2 weeks relative to control; assay type: functional; settings: SJSA-1, 336 h, read-out: TGI
[8] = AUC in nude mouse xenografted with human SJSA1 cells at 100 mg/kg, po; assay type: ADME, organism-based, SJSA-1; set-up: dose 100 mg/kg, route oral; settings: in vivo
[9] = Clearance in nude mouse at 5 mg/kg, iv; assay type: ADME, organism-based; set-up: dose 5 mg/kg, route intravenous; settings: in vivo
SJSA-1 [10] = assay: animal or person; settings: Mus musculus, SJSA-1, po, 336 h, read-out: TGI
Description: Antitumor activity against human SJSA1 cells xenografted in nude mouse assessed as tumor growth inhibition at 50 mg/kg, po after 2 weeks relative to control

[11] = Half life in nude mouse at 5 mg/kg, iv; assay type: ADME, organism-based; set-up: dose 5 mg/kg, route intravenous; settings: in vivo
[12] = AUC in nude mouse xenografted with human SJSA1 cells at 50 mg/kg, po; assay type: ADME, organism-based, SJSA-1; set-up: dose 50 mg/kg, route oral; settings: in vivo
[13] = Cmax in C57 mouse at 20 mg/kg, po; assay type: ADME, organism-based; set-up: dose 20 mg/kg, route oral; settings: in vivo
[14] = Oral bioavailability in C57 mouse at 20 mg/kg; assay type: ADME, organism-based; settings: in vivo
[15] = Oral bioavailability in nude mouse at 50 mg/kg; assay type: ADME, organism-based; settings: in vivo
[16] = Cmax in nude mouse at 50 mg/kg, po; assay type: ADME, organism-based; set-up: dose 50 mg/kg, route oral; settings: in vivo
SJSA-1 [17] = assay: Cell cycle arrest in human SJSA1 cells assessed as accumulation at G1 phase after 24 hrs; assay type: functional, cell-based
[18] = molecular target: E3 ubiquitin-protein ligase Mdm2 (Homo sapiens) (UniProt Q00987); assay: Inhibition of MDM2 in human SJSA1 cells assessed as induction of p53 stabilization after 20 hrs by Western blot analysis; assay type: cell-based; settings: SJSA-1
[19] = AUC in nude mouse xenografted with human SJSA1 cells at 25 mg/kg, po; assay type: ADME, organism-based, SJSA-1; set-up: dose 25 mg/kg, route oral; settings: in vivo
SJSA-1 [20] = assay: Cell cycle arrest in human SJSA1 cells assessed as accumulation at G2/M phase after 24 hrs; assay type: functional, cell-based
SJSA-1 [21] = assay: Antitumor activity against human SJSA1 cells xenografted in nude mouse assessed as tumor growth inhibition at 25 mg/kg, po after 2 weeks relative to control; assay type: functional; settings: SJSA-1, 336 h, read-out: TGI
SJSA-1 [22] = assay: Antitumor activity against human SJSA1 cells xenografted in nude mouse assessed as tumor growth inhibition at 12.5 mg/kg, po after 2 weeks relative to control; assay type: functional; settings: SJSA-1, 336 h, read-out: TGI
[23] = AUC in nude mouse xenografted with human SJSA1 cells at 12.5 mg/kg, po; assay type: ADME, organism-based, SJSA-1; set-up: dose 12.5 mg/kg, route oral; settings: in vivo
SJSA-1 [24] = assay: Induction of apoptosis in human SJSA1 cells after 48 hrs by annexin V staining assay; assay type: functional, cell-based
[25] = Oral bioavailability in C57 mouse at 25 mg/kg; assay type: ADME, organism-based; settings: in vivo
[26] = Total plasma clearance in C57 mouse at 3.6 mg/kg, iv; assay type: ADME, organism-based; set-up: dose 3.6 mg/kg, route intravenous
[27] = Cmax in C57 mouse at 25 mg/kg, po; assay type: ADME, organism-based; set-up: dose 25 mg/kg, route oral; settings: in vivo
[28] = Apparent terminal half-life in C57 mouse at 3.6 mg/kg, iv; assay type: ADME, organism-based; set-up: dose 3.6 mg/kg, route intravenous; settings: in vivo, read-out: betat1/2(app) (converted)

E3 ubiquitin-protein ligase Mdm2 (Homo sapiens), sequence (Q00987 whole entry, looked up): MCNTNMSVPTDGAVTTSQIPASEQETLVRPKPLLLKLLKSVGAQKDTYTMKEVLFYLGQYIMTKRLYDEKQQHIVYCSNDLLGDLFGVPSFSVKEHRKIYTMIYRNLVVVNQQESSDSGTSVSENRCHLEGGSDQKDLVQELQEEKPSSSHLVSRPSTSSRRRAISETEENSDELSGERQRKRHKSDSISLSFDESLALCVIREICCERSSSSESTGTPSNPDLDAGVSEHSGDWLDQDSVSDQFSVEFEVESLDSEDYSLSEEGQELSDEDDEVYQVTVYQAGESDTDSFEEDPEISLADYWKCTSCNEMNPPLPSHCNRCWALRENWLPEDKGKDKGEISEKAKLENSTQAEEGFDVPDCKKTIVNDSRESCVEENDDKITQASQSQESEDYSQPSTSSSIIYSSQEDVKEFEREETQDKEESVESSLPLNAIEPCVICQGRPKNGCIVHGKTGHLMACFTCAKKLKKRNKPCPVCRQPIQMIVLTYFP

pIC50 (RKO) | pIC50 (MDA-MB-435) | pIC50 (SW480) | pIC50 (HCT-116) | pIC50 (SJSA-1 [1]) | clearance [2] [mL/min/kg] | Cmax [3] [ng/mL] | CLhep predicted [4] [mL/min/kg] | bioavailability [5] [%] | half-life [6] [h] | Structure (SMILES) | further results
5.81 | 5.01 | 4.81 | 6.39 | 6.80 | – | – | – | – | – | CC(C)(C)C[C@@H]1N[C@@H](C(=O)Nc2cccc(C(=O)O)c2)[C@H](c2cccc(Cl)c2F)[C@@]1(C#N)c1ccc(Cl)cc1F | –
6.40 | 4.95 | 4.86 | 7.05 | 7.30 | 29.7 | 3000 | 8.9 | 53 | 1.03 | CC(C)(C)C[C@@H]1N[C@@H](C(=O)Nc2ccc(C(=O)O)cn2)[C@H](c2cccc(Cl)c2F)[C@@]1(C#N)c1ccc(Cl)cc1F | –
6.85 | 5.21 | 4.74 | 7.40 | 7.52 | 21.8 | 4100 | 6.6 | 56 | 4.8 | COc1cc(NC(=O)[C@@H]2N[C@@H](CC(C)(C)C)[C@](C#N)(c3ccc(Cl)cc3F)[C@H]2c2cccc(Cl)c2F)ccc1C(=O)O | –
– | – | 4.77 | – | 5.68 | 51.7 | – | 19.9 | – | 0.52 | CC(C)(C)C[C@@H]1N[C@@H](C(=O)NCC[C@H](O)CO)[C@H](c2cccc(Cl)c2F)[C@@]1(C#N)c1ccc(Cl)cc1F | Cmax [13]: 300 ng/mL; bioavailability [14]: 3.6%
6.36 | 4.95 | 4.80 | 6.85 | 7.30 | 18.4 | 3800 | 12.2 | 49 | 4.4 | CC(C)(C)C[C@@H]1N[C@@H](C(=O)Nc2ccc(C(=O)O)c(F)c2)[C@H](c2cccc(Cl)c2F)[C@@]1(C#N)c1ccc(Cl)cc1F | –
6.55 | 5.04 | 4.91 | 6.85 | 7.40 | 24.5 | 1700 | 9.4 | 27 | 1.41 | CC(C)(C)C[C@@H]1N[C@@H](C(=O)Nc2ccc3cc(C(=O)O)ccc3c2)[C@H](c2cccc(Cl)c2F)[C@@]1(C#N)c1ccc(Cl)cc1F | –
6.68 | 4.95 | 4.86 | 7.05 | 7.40 | – | – | 4.9 | – | – | CC(C)(C)C[C@@H]1N[C@@H](C(=O)Nc2ccc(C(=O)O)cc2)[C@H](c2cccc(Cl)c2F)[C@@]1(C#N)c1ccc(Cl)cc1F | clearance [9]: 13.8 mL/min/kg; half-life [11]: 4.34 h; bioavailability [15]: 83%; Cmax [16]: 12000 ng/mL
5.52 | 4.84 | 4.52 | 5.47 | 5.68 | 52.9 | – | 18.7 | – | 0.44 | CC(C)(C)C[C@@H]1N[C@@H](C(=O)NCC[C@H](O)CO)[C@H](c2cccc(Cl)c2)[C@@]1(C#N)c1ccc(Cl)cc1 | Cmax [13]: 500 ng/mL; bioavailability [14]: 6.2%
6.30 | 4.93 | 4.87 | 6.70 | 7.05 | 11.5 | 18000 | 7 | 100 | 3.1 | CC(C)(C)C[C@@H]1N[C@@H](C(=O)Nc2ccc(C(=O)O)cc2F)[C@H](c2cccc(Cl)c2F)[C@@]1(C#N)c1ccc(Cl)cc1F | –
7.15 | 5.04 | 4.88 | 8.00 | 8.00 | 10.3 | 9900 | 4.3 | 80 | 1.6 | COc1cc(C(=O)O)ccc1NC(=O)[C@@H]1N[C@@H](CC(C)(C)C)[C@](C#N)(c2ccc(Cl)cc2F)[C@H]1c1cccc(Cl)c1F [IDASANUTLIN] | Activity (SJSA-1 [17]): Dose-dependent effect; inhibition [18]: Dose-dependent effect; AUC [19]: 29 µg·h/mL; Activity (SJSA-1 [20]): Dose-dependent effect; inhibition in vivo at 25 mg/kg (SJSA-1 [21]): > 100%; inhibition in vivo at 12.5 mg/kg (SJSA-1 [22]): 88%; AUC [23]: 23 µg·h/mL; Activity (SJSA-1 [24]): Dose-dependent effect
5.85 | 5.07 | 5.20 | 5.85 | 5.88 | – | – | 4.2 | – | – | CC(C)(C)C[C@@H]1N[C@@H](C(=O)Nc2ccn(CC(C)(C)O)n2)[C@H](c2cccc(Cl)c2F)[C@@]1(C#N)c1ccc(Cl)cc1F | bioavailability [25]: < 1%; clearance [26]: 19.8 mL/min/kg; Cmax [27]: 10 ng/mL; half-life [28]: 1.48 h

Structure (SMILES) | pIC50 (RKO) | pIC50 (MDA-MB-435) | pIC50 (SW480) | pIC50 (HCT-116) | pIC50 (SJSA-1 [1]) | clearance [2] [mL/min/kg] | Cmax [3] [ng/mL] | CLhep predicted [4] [mL/min/kg] | bioavailability [5] [%] | half-life [6] [h] | further results
CCOc1cc(C(C)(C)C)ccc1C1=N[C@@](C)(c2ccc(Cl)cc2)[C@@](C)(c2ccc(Cl)cc2)N1C(=O)N1CCN(CCCS(C)(=O)=O)CC1 [RO-5045337] | – | – | – | – | – | – | – | 5.8 | – | – | inhibition in vivo at 100 mg/kg (SJSA-1 [7]): > 100%; AUC [8]: 380 µg·h/mL; clearance [9]: 8.6 mL/min/kg; inhibition in vivo at 50 mg/kg (SJSA-1 [10]): 74%; half-life [11]: 2.7 h; AUC [12]: 200 µg·h/mL
